79 compounds from PubChem BioAssay AID977630 (Broad Institute, 2014) can be followed below.

The test concerns E. coli wild-type GFP growth, mixed culture, 24 h. Kind of test: growth inhibition of wild-type GFP E. coli, H38-humanized RFP comparator, dose response, H38 mutant RFP vs wild-type GFP, cherry-pick (AID 977630).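 Note: wild-type GFP strain mixed equally with humanized-ribosome H38 mutant expressing RFP.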
Setting [1] is: E. coli mixed culture total OD600 growth, 24 h.

SMILES strings stand for the structures. Results filed as inconclusive are left out. Calls of active or inactive are those of the source.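 Rule for the calls: active = Normal-ribosome green reporter loss at least double humanized-ribosome red reporter loss, with overall culture growth inhibition under a set limit; inconclusive = no clear call, values can overlap the other calls; inactive = the rest.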 Where only a bound is given, the exact number is not on record here.

Consider `COC(=O)c1ccc2nc(-c3ccc(OC)c(OC)c3)c(Cc3ccc(C)cc3)n2c1`, for which the AC50 is > 100 µM (inactive). Consider `O=C(NCCCCc1ccccc1)c1cccc(NC(=O)C2CCCCC2)c1`, for which the AC50 is > 100 µM (inactive). Also, under setting [1], the AC50 was greater than 100 µM. For `Cc1ccc(NC(=O)COC(=O)CCNS(=O)(=O)c2c(Cl)cccc2Cl)cc1`, under setting [1], the AC50 was greater than 100 µM. With `Cc1ccc(-n2nc(C)c3c(C)c(CCC(=O)O)c(C)nc32)cc1C`, the AC50 was > 100 µM (inactive). The AC50 under setting [1] is greater than 100 µM. For `CC(=O)NCCOc1nc(N2CCCCC2)nc(N2CCCCC2)n1`, the AC50 is > 100 µM (inactive). For the same compound, under setting [1], the AC50 was greater than 100 µM. The like results for `Cc1cc(C)n(CC(O)COc2ccc3ccccc3c2)n1` (configuration not stated) were, in that order, > 100 µM (inactive) and greater than 100 µM. With `CN(CCOc1ccccc1)S(=O)(=O)c1ccccc1C#N`, the AC50 is > 100 µM (inactive). In the case of `Cc1ccccc1Nc1c(-c2cccnc2)nc2ccc(Br)cn12`, the AC50 under setting [1] is greater than 100 µM. With `Cc1ccc(-c2nc(CN3CCCCC3c3cccc(F)c3)c(C)o2)o1` (configuration not stated), the AC50 was > 100 µM (inactive).

For `O=C(Nc1cccc(O)c1)c1cccc(S(=O)(=O)Nc2cccc(O)c2)c1`, the AC50 is > 100 µM (inactive). The compound further had an AC50 under setting [1] greater than 100 µM. For `O=C(Nc1cccnc1)c1ccc([N+](=O)[O-])o1`, the AC50 is > 100 µM (inactive). Regarding `Cc1c(Cc2ccccc2)sc(NC(=O)Cc2ccccc2)c1C(N)=O`, the AC50 is > 100 µM (inactive). With `C=CCn1c(C)cc(C(=O)CSc2nnc(C3CC3)n2C2CC2)c1C`, the AC50 was > 100 µM (inactive). The AC50 under setting [1] was greater than 100 µM. For `Cc1ccsc1C(=O)OCC(=O)N1CCc2ccccc2C1`, the AC50 is > 100 µM (inactive). On the same count and under the same terms, under `O=C(O)c1ccc(Oc2ccc([N+](=O)[O-])cc2)c([N+](=O)[O-])c1` stands > 100 µM (inactive). For the compound `O=C1c2ccccc2CSc2c(O)cccc21`, the AC50 was > 100 µM (inactive). Under setting [1], this compound had an AC50 of 50.8 µM.

As for `Cc1noc(C)c1COc1cccc(C(=O)N2CCc3ccccc32)c1`, the AC50 was > 100 µM (inactive).

With `Oc1c(Br)cc(Br)cc1Br`, the AC50 is > 100 µM (inactive). `O=C(c1cccs1)c1c[nH]cc1-c1ccccc1` displayed an AC50 under setting [1] greater than 100 µM. Regarding `Cc1[nH]nc2c1C(c1ccc(F)cc1)N(Cc1ccccc1)C2=O` (configuration not stated), the AC50 is > 100 µM (inactive). The compound further displayed an AC50 under setting [1] greater than 100 µM. The like results for `O=C(O)c1ccc2c(c1)N(Cc1ccccc1)C(=O)c1ccccc1S2` were, in that order, > 100 µM (inactive) and greater than 100 µM. For the compound `COc1ccc(-c2csc(NC(=O)c3ccccc3S(C)(=O)=O)n2)cc1`, the half-maximal activity concentration (AC50) under setting [1] is greater than 100 µM. Take `CCN(CC)S(=O)(=O)c1ccc(N2CCCC2)c(NC(=O)c2ccccc2OC)c1`: under setting [1], the half-maximal activity concentration (AC50) is greater than 100 µM.

In the case of `Nc1[nH]c(C(=O)c2ccccc2)c(-c2ccc(Cl)cc2)c1C(=O)NCCc1c[nH]c2ccccc12`, the AC50 was > 100 µM (inactive). For the same compound, under setting [1], the AC50 was greater than 100 µM. In the case of `COC(=O)c1sccc1NC(=O)CNC(=O)c1ccccc1`, the AC50 under setting [1] was greater than 100 µM. As for `COc1cc(OC)cc(C(=O)Nc2ccc(C(=O)Nc3ccccc3OC)cc2)c1`, the AC50 is > 100 µM (inactive). Under setting [1], `Cc1cccc(CN2C(=O)c3ccccc3Sc3ccc(C(=O)NCCN4CCOCC4)cc32)c1` showed a concentration at half-maximal activity (AC50) greater than 100 µM. Turning to `O=C(c1ccc(-n2cccn2)cc1)N1CCc2ccccc2C1`, the AC50 was > 100 µM (inactive). Turning to `CCOCCCNC(=O)C(NC(=O)c1ccccc1O)c1ccc(C)cc1` (configuration not stated), the AC50 was > 100 µM (inactive). Besides, the half-maximal activity concentration (AC50) under setting [1] was greater than 100 µM. Take `O=C(Nc1ccccc1N1CCN(C(=O)c2ccccc2)CC1)c1ccc([N+](=O)[O-])o1`: the AC50 is > 100 µM (inactive). Turning to `CC(C)(CC(=O)O)CC(=O)NCc1c(Cl)cccc1Sc1ccc(Cl)cc1`, the AC50 is > 100 µM (inactive). Consider `COC(=O)c1cc(C(=O)c2c(C)cc3ccccn23)cc([N+](=O)[O-])c1`, for which, under setting [1], the AC50 is greater than 100 µM. `CC(=O)Nc1ccc(-c2ccnc3c2CC(C)(C(=O)Nc2ccc4c(c2)OCO4)O3)cc1` (configuration not stated): the AC50 was > 100 µM (inactive). Turning to `O=[N+]([O-])c1ccccc1Oc1ccc(Cl)c2cccnc12`, the AC50 was > 100 µM (inactive). Turning to `O=c1[nH]c(C2CCN(S(=O)(=O)c3ccc4c(c3)OCCO4)CC2)nc2c1nnn2Cc1ccccc1F`, the AC50 was > 100 µM (inactive). For the same compound, the AC50 under setting [1] was greater than 100 µM.

On to `Cc1cccc(C(=O)NCC(=O)N2CC=C(c3ccccc3)CC2)c1`, for which the AC50 is > 100 µM (inactive). Take `O=C(CCNC(=O)c1ccco1)Nc1cccc(Br)c1`: the AC50 is > 100 µM (inactive). As for `C=CCN(c1ccccc1)S(=O)(=O)c1ccc(Cl)c(C(=O)OCC(=O)NCCCN2CCCC2=O)c1`, the AC50 under setting [1] was greater than 100 µM.

On to `COc1ccc(NC(=O)CN(c2ccccc2OC)S(=O)(=O)c2cccs2)cc1Cl`, for which the AC50 was > 100 µM (inactive). For `CCN(CC)CCNC(=O)c1cc2cc3ccc(OC)cc3nc2o1`, the AC50 was > 100 µM (inactive). On the same count and under the same terms, in the case of `CC(C)(C)N(Cc1ccccc1)C(=O)COC(=O)Cn1cnc2ccccc2c1=O` it was > 100 µM (inactive); in that of `COC(=O)c1sc(C(C)(C)C)cc1CS(=O)(=O)c1ccc(Cl)cc1`, > 100 µM (inactive); in that of `Cc1ccc(S(=O)(=O)N2CCOCC2)cc1NC(=O)COc1ccc(-c2nnco2)cc1`, > 100 µM (inactive). For `O=C(NCc1ccc2c(c1)OCO2)C1CCCN1S(=O)(=O)c1ccc(Cl)cc1` (configuration not stated), the AC50 is > 100 µM (inactive). Take `CCC1(CC)NC(=O)N(CC(=O)N2N=C(c3ccc(Cl)cc3)CC2c2ccco2)C1=O` (configuration not stated): the AC50 is > 100 µM (inactive). With `CCOc1ccc2nc(NC(=O)CSc3nc(SC)ns3)sc2c1`, the AC50 was > 100 µM (inactive). The same compound returned an AC50 under setting [1] greater than 100 µM. In turn, `CC1Cc2ccccc2N1C(=O)CN1C(=O)NC(C)(CCc2ccccc2)C1=O` (configuration not stated) gave an AC50 under setting [1] greater than 100 µM. Under setting [1], `CCOC(=O)C(CC)Sc1cc(C)nc2ccc(OC)cc12` (configuration not stated) displayed an AC50 greater than 100 µM. Take `Cc1ccc(-c2cc(-c3ccc(C)cc3)[n+](-c3ccc(C(=O)[O-])cc3)c(-c3ccc(C)cc3)c2)cc1`: the AC50 was > 100 µM (inactive). As for `O=c1[nH]nc(SCc2ccccc2)n1C1CC2C=CC1C2` (configuration not stated), the AC50 is > 100 µM (inactive). Under setting [1], this compound registered a concentration at half-maximal activity (AC50) of 49.8 µM.

As for `CCN(CC)C(=O)c1ccc(COc2ccccc2Cl)o1`, the AC50 is > 100 µM (inactive). For the same compound, the AC50 under setting [1] was greater than 100 µM. As for `O=C(CCCOc1ccc(Cl)cc1Cl)Nc1ccccc1C(=O)O`, the AC50 is > 100 µM (inactive). Under setting [1], this compound had an AC50 greater than 100 µM. With `CCc1cc(C(=O)N2CCCC(C(=O)c3cccc4ccccc34)C2)n(C)n1` (configuration not stated), the AC50 is > 100 µM (inactive). For the compound `CCOc1ccc2nc(SCC(=O)Nc3nonc3C)[nH]c2c1`, the AC50 is > 100 µM (inactive). This compound returned a half-maximal activity concentration (AC50) under setting [1] greater than 100 µM. With `CCCCn1c(NS(=O)(=O)c2ccc(C)cc2)c(C(=O)OCC)c2nc3ccccc3nc21`, the AC50 was > 100 µM (inactive). Under setting [1], this compound yielded a half-maximal activity concentration (AC50) greater than 100 µM. `O=C(COC(=O)C1CC1)Nc1nc(-c2ccc(F)c(F)c2)cs1`: the AC50 is > 100 µM (inactive). The compound `C[C@@H]1CCCCO[C@H](CN(C)C(=O)CCCN(C)C)[C@H](C)CN([C@@H](C)CO)C(=O)c2cc(NC(=O)Nc3cccc4ccccc34)ccc2O1` had an AC50 under setting [1] greater than 100 µM. Regarding `CC1(C)CC2CC(C)(CN2c2ncnc3ccccc23)C1` (configuration not stated), the AC50 was > 100 µM (inactive). Under setting [1], this compound displayed an AC50 greater than 100 µM. For the compound `COC(=O)c1ccsc1NC(=O)c1cccc(OC)c1`, the AC50 under setting [1] was greater than 100 µM.

With `COc1cc2cc(C(=O)Nc3ccc4c(c3)OCCO4)[nH]c2cc1OC`, the AC50 was > 100 µM (inactive). The same compound yielded an AC50 under setting [1] greater than 100 µM. As to `N#Cc1nc(-c2ccco2)oc1NCc1ccccc1Cl`, the AC50 is > 100 µM (inactive). Besides, under setting [1], the AC50 turned out to be 41.5 µM. Consider `COc1ccc2nc(SCC(=O)Nc3ccccc3)[nH]c2c1`, for which the AC50 is > 100 µM (inactive). The compound also came in with an AC50 under setting [1] greater than 100 µM. Turning to `CCN(c1ccccc1)S(=O)(=O)c1ccc(OC)c(NC(=O)C2CC(=O)N(Cc3ccccc3)C2)c1` (configuration not stated), the AC50 is > 100 µM (inactive). Regarding `O=C(Cc1c(Cl)cccc1Cl)Nc1cccc(S(=O)(=O)N2CCOCC2)c1`, the AC50 is > 100 µM (inactive). With `CC1CCN(C(=O)COC(=O)c2ccccc2NC(=O)c2ccco2)CC1`, the AC50 was > 100 µM (inactive). For `FC(F)(F)c1ccc(Cl)c(-n2c(Cc3cccs3)n[nH]c2=S)c1`, the AC50 was > 100 µM (inactive). Take `O=C(NCCc1csc(-c2ccccc2)n1)c1ccccc1F`: the AC50 was > 100 µM (inactive). With `O=S(=O)(NCc1ccc2c(c1)OCO2)c1ccc2c(c1)oc1ccccc12`, the AC50 is > 100 µM (inactive). For the same compound, under setting [1], the AC50 stood at 27.2 µM. In the case of `Cc1onc(-c2ccccc2Cl)c1C(=O)Nc1ccc(Cl)cn1`, the AC50 is > 100 µM (inactive). `COc1ccc(N(C)S(=O)(=O)c2cccc(C(=O)NC3CCCCC3C)c2)cc1` (configuration not stated): the AC50 is > 100 µM (inactive). For the compound `CCOc1ccccc1NC(=O)c1cc(SC)ccc1Cl`, the AC50 is > 100 µM (inactive). The same measure, in the same setting: under `CN(C)CCCN(C(=O)CCSc1ccccc1)c1nc2cc3c(cc2s1)OCO3` stands > 100 µM (inactive).

On to `O=S1(=O)N[C@H](Cc2ccccc2)COc2cccc(N3CCC[C@H]3CO)c21`, for which the AC50 was > 100 µM (inactive).

For `CC(=O)Nc1ccc(CNc2nc(NCCN(C)C)nc3cc(-c4ccccc4)sc23)cc1`, the AC50 was > 100 µM (inactive). For `CS(=O)(=O)c1ccc(Cl)c(NC(=O)CSc2nncn2-c2ccccc2)c1`, the AC50 is > 100 µM (inactive). For the compound `Cc1ccc(S(=O)(=O)Nc2ccccc2CNc2cccc(C)n2)cc1`, the AC50 was > 100 µM (inactive). Regarding `CC(=O)Nc1nc(C)c(-c2csc(Nc3ccccn3)n2)s1`, the AC50 was > 100 µM (inactive). Regarding `O=C(Nc1cccc(Oc2ccc3c(c2)C(=O)NC3=O)c1)c1cccs1`, the AC50 is > 100 µM (inactive).

On to `COc1ccc(OC)c(NC(=O)COC(=O)C2CCN(C(=O)c3ccc(Cl)cc3)CC2)c1`, for which the AC50 is > 100 µM (inactive).
